Assay results from ChEMBL document CHEMBL1143248, “Adenosine analogues as inhibitors of P2Y12 receptor mediated platelet aggregation” (Bioorg Med Chem Lett, 2008).

molecular target: P2Y purinoceptor 12 (Homo sapiens) (UniProt Q9H244); test: Antagonist activity at P2Y12 receptor assessed as platelet aggregation at 30 uM by washed platelet assay; type: functional
Sequence (Q9H244 whole entry): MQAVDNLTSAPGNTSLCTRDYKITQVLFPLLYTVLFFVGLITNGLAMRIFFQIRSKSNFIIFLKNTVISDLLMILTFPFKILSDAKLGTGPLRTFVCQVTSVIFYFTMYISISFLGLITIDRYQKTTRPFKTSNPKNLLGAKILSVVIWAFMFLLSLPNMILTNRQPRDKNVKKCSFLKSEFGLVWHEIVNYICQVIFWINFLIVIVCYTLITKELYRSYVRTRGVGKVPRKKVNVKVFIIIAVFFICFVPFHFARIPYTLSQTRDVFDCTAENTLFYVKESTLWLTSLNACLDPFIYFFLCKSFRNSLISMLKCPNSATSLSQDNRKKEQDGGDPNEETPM

SMILES | inhibition
CCNC(=O)Nc1ncnc2c1ncn2[C@@H]1O[C@H](CS(=O)(=O)CC(O)CO)[C@H]2O[C@H](/C=C/c3ccccc3)O[C@H]21 (stereo not given in full) | 14%
CCNC(=O)Nc1ncnc2c1ncn2[C@@H]1O[C@H](CNC/C(C)=C/C(=O)OCC)[C@H]2O[C@H](/C=C/c3ccccc3)O[C@H]21 | 70%
CCCCCCCSC[C@H]1O[C@@H](n2cnc3c(NC(=O)NCC)ncnc32)[C@@H]2O[C@@H](/C=C/c3ccccc3)O[C@@H]21 | 38%
CCNC(=O)Nc1ncnc2c1ncn2[C@@H]1O[C@H](CNCc2ccccc2O)[C@H]2O[C@H](/C=C/c3ccccc3)O[C@H]21 | 70%
CCNC(=O)Nc1ncnc2c1ncn2[C@@H]1O[C@H](CNCc2nccs2)[C@H]2O[C@H](/C=C/c3ccccc3)O[C@H]21 | 73%
CCNC(=O)Nc1ncnc2c1ncn2[C@@H]1O[C@H](CNC(=O)c2[nH]c(C)c(C(C)=O)c2C)[C@H]2O[C@H](/C=C/c3ccccc3)O[C@H]21 | 53%
CCNC(=O)Nc1ncnc2c1ncn2[C@@H]1O[C@H](CN(CC2CC2C(=O)OCC)CC2CC2C(=O)OCC)[C@H]2O[C@H](/C=C/c3ccccc3)O[C@H]21 (stereo not given in full) | 46%
CCNC(=O)Nc1ncnc2c1ncn2[C@@H]1O[C@H](CSCCCS(=O)(=O)O)[C@H]2O[C@H](/C=C/c3ccccc3)O[C@H]21 | 90%

Results, then the compound that gave them:

inhibition | SMILES
63% | CCNC(=O)Nc1ncnc2c1ncn2[C@@H]1O[C@H](CSC)[C@H]2O[C@H](/C=C/c3ccccc3)O[C@H]21
57% | CCNC(=O)Nc1ncnc2c1ncn2[C@@H]1O[C@H](CS(=O)(=O)CCO)[C@H]2O[C@H](/C=C/c3ccccc3)O[C@H]21
63% | CCNC(=O)Nc1ncnc2c1ncn2[C@@H]1O[C@H](CSCCO)[C@H]2O[C@H](/C=C/c3ccccc3)O[C@H]21
76% | CCNC(=O)Nc1ncnc2c1ncn2[C@@H]1O[C@H](CSCC(C)O)[C@H]2O[C@H](/C=C/c3ccccc3)O[C@H]21 (stereo not given in full)
52% | CCCSC[C@H]1O[C@@H](n2cnc3c(NC(=O)NCC)ncnc32)[C@@H]2O[C@@H](/C=C/c3ccccc3)O[C@@H]21
65% | CCCS(=O)(=O)C[C@H]1O[C@@H](n2cnc3c(NC(=O)NCC)ncnc32)[C@@H]2O[C@@H](/C=C/c3ccccc3)O[C@@H]21

molecular target: not listed separately; test: Antagonist activity at P2Y12 receptor assessed as platelet aggregation by washed platelet assay

IC50 | SMILES
16 nM | CCNC(=O)Nc1ncnc2c1ncn2[C@@H]1O[C@H](COP(=O)(O)O)[C@H]2O[C@H](/C=C/c3ccccc3)O[C@H]21 [REGRELOR DISODIUM]
